Measurements taken from US20240174647A1 (NEURON23, INC., priority 2022, published 2024).

Each molecule was assayed against wt human LRRK2, catalytic site (Homo sapiens (Human), UniProt Q5S007) (assay: TR-FRET LanthaScreen Tb Kinase Activity Assay (LRRK2 kinase inhibition)). Details: 2 nM wt human LRRK2, 400 nM fluorescein-ERM (LRRKtide) peptide, 38 μM ATP, 120 minutes at room temperature.
Format: biochemical
Experimental: The compounds in Table 1 were tested for their inhibitory effect on LRRK2 kinase according to the following procedures.
The protocol for basic TR-FRET LanthaScreen Tb Kinase Activity Assay inhibitor studies were as follows. LanthaScreen Kinase Activity Assays (ThermoFisher/USA) to evaluate inhibitors were performed by addition of 100 nL of test compound in corresponding DMSO dilutions/5 μL of kinase/fluorescein-ERM(LRRKtide) peptide mixture, 5 μL of ATP into 384 well small volume plates. After incubation for 120 minutes at room temperature, the detection reagents containing Tb-anti-pLRRKtide antibody were added to monitor phosphrylation level of peptide. Then, after 60 min minutes incubation at room temperature plates were read in Envision. Data analysis of emission ratios was according to LanthaScreen Tb Kinase Activity Assay protocol.
Kinase and assay components were adjusted to final concentrations according to the kit protocol. For LRRK2: 2 nM wt human LRRK2, catalytic site, catalytic site (ThermoFisher/USA), 400 nM peptide, 38 μM ATP in 1× Kinase Buffer A.
Basic protocol for TR-FRET LanthaScreen Tb Kinase Activity Assay inhibitor studies involved two steps: • Enzymatic step: Addition of 100 nL of test compound in corresponding DMSO dilutions, 5 μL of kinase/substrate mixture, 5 μL of ATP into 384 well small volume plates. Incubation for 120 minutes at room temperature. • Detection step: Addition of 10 μL EDTA & antibody, read plate after 60 minutes. Data analysis of emission ratios according to KinEASE assay protocol.
Kinase and assay components were adjusted to final concentrations according to the kit protocol.
In the table below, activity is provided as follows: +++=IC50 less than 50 nM; ++=IC50 between 50 nM and 200 nM; +=IC50>=200 nM

wt human LRRK2, catalytic site, sequence (Q5S007 1879-2138): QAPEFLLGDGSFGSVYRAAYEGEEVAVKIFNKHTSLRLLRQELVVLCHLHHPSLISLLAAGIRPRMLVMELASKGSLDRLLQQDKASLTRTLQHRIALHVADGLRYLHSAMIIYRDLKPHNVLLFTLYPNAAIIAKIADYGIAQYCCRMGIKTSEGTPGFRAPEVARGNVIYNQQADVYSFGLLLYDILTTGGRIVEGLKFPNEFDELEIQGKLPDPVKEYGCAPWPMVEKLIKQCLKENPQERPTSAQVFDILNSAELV

Compound | IC50
CNc1nc(Nc2cccc3nn(C)cc23)ncc1C(F)(F)F [Example 34, N4-methyl-N2-(2-methyl-2H-indazol-4-yl)-5-(trifluoromethyl)pyrimidine-2,4-diamine] | < 50 nM
CNc1nc(Nc2ccc(OC)c3nn(C)cc23)ncc1C(F)(F)F [Example 35, N2-(7-methoxy-2-methyl-2H-indazol-4-yl)-N4-methyl-5-(trifluoromethyl) pyrimidine-2,4-diamine] | < 50 nM
CNc1nc(Nc2c(C)ccc3c2cnn3C)ncc1C(F)(F)F [Example 36, N2-(1,5-dimethyl-1H-indazol-4-yl)-N4-methyl-5-(trifluoromethyl)pyrimidine-2,4-diamine] | 50 to 200 nM
CNc1nc(Nc2c(OC)ccc3c2cnn3C)ncc1C(F)(F)F [Example 37, N2-(5-methoxy-1-methyl-1H-indazol-4-yl)-N4-methyl-5-(trifluoromethyl) pyrimidine-2,4-diamine] | < 50 nM
CNc1nc(Nc2c(F)ccc3c2cnn3C)ncc1C(F)(F)F [Example 38, N2-(5-fluoro-1-methyl-1H-indazol-4-yl)-N4-methyl-5-(trifluoromethyl) pyrimidine-2,4-diamine] | 50 to 200 nM
CNc1nc(Nc2c(C)ccc3nn(C)cc23)ncc1C(F)(F)F [Example 39, N2-(2,5-dimethyl-2H-indazol-4-yl)-N4-methyl-5-(trifluoromethyl)pyrimidine-2,4-diamine] | ≥ 200 nM
CNc1nc(Nc2c(OC)ccc3nn(C)cc23)ncc1C(F)(F)F [Example 40, N2-(5-methoxy-2-methyl-2H-indazol-4-yl)-N-methyl-5-(trifluoromethyl) pyrimidine-2,4-diamine] | ≥ 200 nM
CNc1nc(Nc2c(F)ccc3nn(C)cc23)ncc1C(F)(F)F [Example 41, N2-(5-fluoro-2-methyl-2H-indazol-4-yl)-N4-methyl-5-(trifluoromethyl) pyrimidine-2,4-diamine] | ≥ 200 nM
CNc1nc(Nc2cc(F)cc3c2cnn3C)ncc1C(F)(F)F [Example 42, N2-(6-fluoro-1-methyl-1H-indazol-4-yl)-N4-methyl-5-(trifluoromethyl) pyrimidine-2,4-diamine] | < 50 nM
CNc1nc(Nc2cc(C(C)C)cc3c2cnn3C)ncc1C(F)(F)F [Example 43, N2-(6-isopropyl-1-methyl-1H-indazol-4-yl)-N4-methyl-5-(trifluoromethyl) pyrimidine-2,4-diamine] | < 50 nM
CNc1nc(Nc2cc(C#N)cc3c2cnn3C)ncc1C(F)(F)F [Example 44, 1-methyl-4-((4-(methylamino)-5-(trifluoromethyl)pyrimidin-2-yl)amino)-1H-indazole-6-carbonitrile] | < 50 nM
CNc1nc(Nc2cc(C)cc3c2cnn3C)ncc1C(F)(F)F [Example 45, N2-(1,6-dimethyl-1H-indazol-4-yl)-N4-methyl-5-(trifluoromethyl)pyrimidine-2,4-diamine] | < 50 nM
CNc1nc(Nc2cc(/C=C/C(=O)N3CCOCC3)cc3c2cnn3C)ncc1C(F)(F)F [Example 46, (E)-3-(1-methyl-4-((4-(methylamino)-5-(trifluoromethyl)pyrimidin-2-yl)amino)-1H-indazol-6-yl)-1-morpholinoprop-2-en-1-one] | < 50 nM
CNc1nc(Nc2ccc(OC)c3c2cnn3C)ncc1C(F)(F)F [Example 47, N2-(7-methoxy-1-methyl-1H-indazol-4-yl)-N4-methyl-5-(trifluoromethyl) pyrimidine-2,4-diamine] | < 50 nM
CNc1nc(Nc2cccc3[nH]nc(C)c23)ncc1C(F)(F)F [Example 48, N4-methyl-N2-(3-methyl-1H-indazol-4-yl)-5-(trifluoromethyl)pyrimidine-2,4-diamine] | 50 to 200 nM
CNc1nc(Nc2cc(C#N)cc3[nH]ncc23)ncc1C(F)(F)F [Example 49, 4-((4-(methylamino)-5-(trifluoromethyl)pyrimidin-2-yl)amino)-1H-indazole-6-carbonitrile] | < 50 nM
CNc1nc(Nc2cc(CC#N)cc3[nH]ncc23)ncc1C(F)(F)F [Example 50, 2-(4-((4-(methylamino)-5-(trifluoromethyl)pyrimidin-2-yl)amino)-1H-indazol-6-yl)acetonitrile] | < 50 nM
CNc1nc(Nc2cc(CC#N)cc3c2cnn3C)ncc1C(F)(F)F [Example 51, 2-(1-methyl-4-((4-(methylamino)-5-(trifluoromethyl)pyrimidin-2-yl)amino)-1H-indazol-6-yl)acetonitrile] | < 50 nM

Compound | IC50
CNc1nc(Nc2cc(/C=C/C(=O)N3CCOCC3)cc3[nH]ncc23)ncc1C(F)(F)F [Example 52] | < 50 nM
CNc1nc(Nc2cc(CCC(=O)N3CCOCC3)cc3[nH]ncc23)ncc1C(F)(F)F [Example 53, 3-(4-((4-(methylamino)-5-(trifluoromethyl)pyrimidin-2-yl)amino)-1H-indazol-6-yl)-1-morpholinopropan-1-one] | 50 to 200 nM
CNc1nc(Nc2cc(CCC(=O)N3CCOCC3)cc3c2cnn3C)ncc1C(F)(F)F [Example 54, 3-(1-methyl-4-((4-(methylamino)-5-(trifluoromethyl)pyrimidin-2-yl)amino)-1H-indazol-6-yl)-1-morpholinopropan-1-one] | 50 to 200 nM
CNc1nc(Nc2ccc(CC#N)c3c2cnn3C)ncc1C(F)(F)F [Example 55, 2-(1-methyl-4-((4-(methylamino)-5-(trifluoromethyl)pyrimidin-2-yl)amino)-1H-indazol-7-yl)acetonitrile] | < 50 nM
CNc1nc(Nc2ccc(/C=C/C(=O)N3CCOCC3)c3[nH]ncc23)ncc1C(F)(F)F [Example 56, (E)-3-(4-((4-(methylamino)-5-(trifluoromethyl)pyrimidin-2-yl)amino)-1H-indazol-7-yl)-1-morpholinoprop-2-en-1-one] | < 50 nM
CNc1nc(Nc2ccc(CCC(=O)N3CCOCC3)c3[nH]ncc23)ncc1C(F)(F)F [Example 57, 3-(4-((4-(methylamino)-5-(trifluoromethyl)pyrimidin-2-yl)amino)-1H-indazol-7-yl)-1-morpholinopropan-1-one] | < 50 nM
CNc1nc(Nc2ccc(CCC(=O)N3CCOCC3)c3c2cnn3C)ncc1C(F)(F)F [Example 58, 3-(1-methyl-4-((4-(methylamino)-5-(trifluoromethyl)pyrimidin-2-yl)amino)-1H-indazol-7-yl)-1-morpholinopropan-1-one] | < 50 nM
CNc1nc(Nc2ccc(/C(C)=C/C(=O)N3CCOCC3)c3c2cnn3C)ncc1C(F)(F)F [Example 59, (E)-3-(1-methyl-4-((4-(methylamino)-5-(trifluoromethyl)pyrimidin-2-yl)amino)-1H-indazol-7-yl)-1-morpholinobut-2-en-1-one] | < 50 nM
CNc1nc(Nc2ccc(C(C)CC(=O)N3CCOCC3)c3c2cnn3C)ncc1C(F)(F)F (centres unmarked) [Example 60, 3-(1-methyl-4-((4-(methylamino)-5-(trifluoromethyl)pyrimidin-2-yl)amino)-1H-indazol-7-yl)-1-morpholinobutan-1-one] | < 50 nM
CNc1nc(Nc2cnn3ccccc23)ncc1C(F)(F)F [Example 61, N4-methyl-N2-(pyrazolo[1,5-a]pyridin-3-yl)-5-(trifluoromethyl)pyrimidine-2,4-diamine] | < 50 nM
CNc1nc(Nc2c(C)nn3ccccc23)ncc1C(F)(F)F [Example 62, N4-methyl-N2-(2-methylpyrazolo[1,5-a]pyridin-3-yl)-5-(trifluoromethyl) pyrimidine-2,4-diamine] | 50 to 200 nM
CNc1nc(Nc2c(C)[nH]c3ccccc23)ncc1C(F)(F)F [Example 63, N4-methyl-N2-(2-methyl-1H-indol-3-yl)-5-(trifluoromethyl)pyrimidine-2,4-diamine] | 50 to 200 nM
CNc1nc(Nc2c(C)n(C)c3ccccc23)ncc1C(F)(F)F [Example 64, N2-(1,2-dimethyl-1H-indol-3-yl)-N4-methyl-5-(trifluoromethyl)pyrimidine-2,4-diamine] | 50 to 200 nM
CNc1nc(Nc2c(C)nn3c(C#N)cccc23)ncc1C(F)(F)F [Example 65, 2-methyl-3-((4-(methylamino)-5-(trifluoromethyl)pyrimidin-2-yl)amino)pyrazolo[1,5-a]pyridine-7-carbonitrile] | ≥ 200 nM
CNc1nc(Nc2c(C)[nH]c3c(C#N)cccc23)ncc1C(F)(F)F [Example 66, 2-methyl-3-((4-(methylamino)-5-(trifluoromethyl)pyrimidin-2-yl)amino)-1H-indole-7-carbonitrile] | 50 to 200 nM
CNc1nc(Nc2nn(C)c3ccccc23)ncc1C(F)(F)F [Example 67, N4-methyl-N2-(1-methyl-1H-indazol-3-yl)-5-(trifluoromethyl)pyrimidine-2,4-diamine] | ≥ 200 nM
Cn1ncc2c(Nc3ncc(C(F)(F)F)c(NC4CC4)n3)cccc21 [Example 68, N4-cyclopropyl-N2-(1-methyl-1H-indazol-4-yl)-5-(trifluoromethyl)pyrimidine-2,4-diamine] | < 50 nM
